Experimental data taken from PubChem BioAssay (NCI).
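Values below derive from 48-hour exposures of cells grown in 96-well plates, with endpoints linearly interpolated between the two concentrations bracketing the appropriate inhibition level. The concentration for 50% growth inhibition is given as GI50. Definition used: TGI = concentration required for complete inhibition of growth.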

Assays:
Experiment in all cases: DTP human tumour cell line panel, 48 h
OVCAR-3 ovarian = test system: OVCAR-3 ovarian
SR leukemia = test system: SR leukemia
ACHN renal = test system: ACHN renal
M14 melanoma = test system: M14 melanoma
OVCAR-8 ovarian = test system: OVCAR-8 ovarian
A498 renal = test system: A498 renal
NCI-H522 lung = test system: NCI-H522 lung
MOLT-4 leukemia = test system: MOLT-4 leukemia
SN12C renal = test system: SN12C renal
KM12 colon = test system: KM12 colon

CCc1n(Cc2ccc3ccccc3n2)cc[n+]1Cc1ccc2ccccc2n1
GI50 (OVCAR-3 ovarian): 0.0878 µM
TGI (OVCAR-3 ovarian): 6.66 µM
GI50 (SR leukemia): 0.0753 µM
TGI (SR leukemia): 12.5 µM
GI50 (ACHN renal): 28 µM
TGI (ACHN renal): > 100 µM
GI50 (M14 melanoma): 2.93 µM
TGI (M14 melanoma): 21.7 µM
GI50 (OVCAR-8 ovarian): 1.63 µM
TGI (OVCAR-8 ovarian): 17.6 µM
GI50 (A498 renal): 0.303 µM
TGI (A498 renal): 9.38 µM
GI50 (NCI-H522 lung): 0.0837 µM
TGI (NCI-H522 lung): 1.49 µM
GI50 (MOLT-4 leukemia): 0.437 µM
TGI (MOLT-4 leukemia): 10.1 µM
GI50 (SN12C renal): 0.317 µM
TGI (SN12C renal): 7.75 µM
GI50 (KM12 colon): 0.185 µM
TGI (KM12 colon): 11.3 µM

CN1CCN(c2ccc(NC(=O)c3nc4ccc5[nH]ncc5c4c4c3CCCC4)cc2C(F)(F)F)CC1
GI50 (OVCAR-3 ovarian): 0.939 µM
TGI (OVCAR-3 ovarian): 1.81 µM
GI50 (SR leukemia): 0.9 µM
TGI (SR leukemia): 2.81 µM
GI50 (ACHN renal): 0.857 µM
TGI (ACHN renal): 1.55 µM
GI50 (M14 melanoma): 0.861 µM
TGI (M14 melanoma): 1.71 µM
GI50 (OVCAR-8 ovarian): 0.921 µM
TGI (OVCAR-8 ovarian): 1.91 µM
GI50 (A498 renal): > 50 µM
TGI (A498 renal): > 50 µM
GI50 (NCI-H522 lung): 0.856 µM
TGI (NCI-H522 lung): 1.88 µM
GI50 (MOLT-4 leukemia): 1.09 µM
TGI (MOLT-4 leukemia): 3.08 µM
GI50 (SN12C renal): 0.895 µM
TGI (SN12C renal): 1.65 µM
GI50 (KM12 colon): 1.47 µM
TGI (KM12 colon): 5.27 µM

O=C(O)C1C2CCC(O2)C1C(=O)N1CCCCC1 (stereo not drawn)
TGI (OVCAR-3 ovarian): 4.66 µM
TGI (SR leukemia): 14.2 µM
TGI (ACHN renal): 17 µM
TGI (M14 melanoma): 26.2 µM
TGI (OVCAR-8 ovarian): 18.1 µM
TGI (A498 renal): 4.46 µM
TGI (NCI-H522 lung): 17.4 µM
TGI (MOLT-4 leukemia): 20.6 µM
TGI (SN12C renal): 7.17 µM
TGI (KM12 colon): 37.2 µM

O=C1C=C(NCCNC(=S)Nc2ccccc2)c2nccc3c2c1nc1ccccc13
GI50 (OVCAR-3 ovarian): 18.1 µM
TGI (OVCAR-3 ovarian): > 100 µM
GI50 (SR leukemia): 2.97 µM
TGI (SR leukemia): > 100 µM
GI50 (ACHN renal): 38.6 µM
TGI (ACHN renal): > 100 µM
GI50 (M14 melanoma): 39.3 µM
TGI (M14 melanoma): > 100 µM
GI50 (OVCAR-8 ovarian): > 100 µM
TGI (OVCAR-8 ovarian): > 100 µM
GI50 (A498 renal): > 100 µM
TGI (A498 renal): > 100 µM
GI50 (NCI-H522 lung): 46.8 µM
TGI (NCI-H522 lung): > 100 µM
GI50 (SN12C renal): 23.5 µM
TGI (SN12C renal): > 100 µM
GI50 (KM12 colon): 41.2 µM
TGI (KM12 colon): > 100 µM

COc1ccccc1/C=C1\CCC(CCN(C)C)(C2=CCCC2)C1=O (stereo not drawn)
TGI (OVCAR-3 ovarian): 40.6 µM
TGI (SR leukemia): 52.3 µM
TGI (ACHN renal): 34.1 µM
TGI (M14 melanoma): 31.3 µM
TGI (OVCAR-8 ovarian): 34.7 µM
TGI (A498 renal): 32.1 µM
TGI (NCI-H522 lung): 27.1 µM
TGI (MOLT-4 leukemia): 54.3 µM
TGI (SN12C renal): 50.3 µM
TGI (KM12 colon): 33 µM

C=C1SC(=Nc2c(C)cc(C)cc2C)N(C(=O)c2sc3ccccc3c2Cl)C12CCCCC2
GI50 (OVCAR-3 ovarian): 88.7 µM
TGI (OVCAR-3 ovarian): > 100 µM
GI50 (SR leukemia): 13 µM
TGI (SR leukemia): > 100 µM
GI50 (ACHN renal): > 100 µM
TGI (ACHN renal): > 100 µM
GI50 (M14 melanoma): > 100 µM
TGI (M14 melanoma): > 100 µM
GI50 (OVCAR-8 ovarian): > 100 µM
TGI (OVCAR-8 ovarian): > 100 µM
GI50 (A498 renal): > 100 µM
TGI (A498 renal): > 100 µM
GI50 (NCI-H522 lung): 28.6 µM
TGI (NCI-H522 lung): > 100 µM
GI50 (MOLT-4 leukemia): 26.3 µM
TGI (MOLT-4 leukemia): > 100 µM
GI50 (SN12C renal): > 100 µM
TGI (SN12C renal): > 100 µM
GI50 (KM12 colon): 54.6 µM
TGI (KM12 colon): > 100 µM

CC1(C)CC[C@H](Nc2ncc(C(F)(F)F)c(-c3c[nH]c4c(P(C)(C)=O)c(C#N)ccc34)n2)CN1
GI50 (OVCAR-3 ovarian): < 0.0214 µM
TGI (OVCAR-3 ovarian): 4.29 µM
GI50 (SR leukemia): < 0.01 µM
GI50 (ACHN renal): 0.0721 µM
TGI (ACHN renal): 9.27 µM
GI50 (M14 melanoma): 0.0759 µM
TGI (M14 melanoma): 6.69 µM
GI50 (OVCAR-8 ovarian): 0.469 µM
TGI (OVCAR-8 ovarian): > 50.2 µM
GI50 (A498 renal): 1.76 µM
TGI (A498 renal): 8.85 µM
TGI (NCI-H522 lung): 14.4 µM
GI50 (MOLT-4 leukemia): 0.214 µM
TGI (MOLT-4 leukemia): > 23.2 µM
GI50 (SN12C renal): 0.141 µM
TGI (SN12C renal): 32.2 µM
GI50 (KM12 colon): 0.19 µM
TGI (KM12 colon): 13.2 µM

CC(C)CNCC(O)COc1ccc(C(C)(C)c2ccc(OCC(O)CNCC(C)C)cc2)cc1 (stereo not drawn)
GI50 (OVCAR-3 ovarian): 1.92 µM
TGI (OVCAR-3 ovarian): 4.15 µM
GI50 (SR leukemia): 2.02 µM
TGI (SR leukemia): 4.39 µM
GI50 (ACHN renal): 1.82 µM
TGI (ACHN renal): 3.41 µM
GI50 (M14 melanoma): 1.76 µM
TGI (M14 melanoma): 3.43 µM
GI50 (OVCAR-8 ovarian): 2.01 µM
TGI (OVCAR-8 ovarian): 4.42 µM
GI50 (A498 renal): 11.3 µM
TGI (A498 renal): 25.1 µM
GI50 (NCI-H522 lung): 1.87 µM
TGI (NCI-H522 lung): 3.82 µM
GI50 (MOLT-4 leukemia): 2.03 µM
TGI (MOLT-4 leukemia): 5.16 µM
GI50 (SN12C renal): 4.82 µM
TGI (SN12C renal): 18.3 µM
GI50 (KM12 colon): 2.38 µM
TGI (KM12 colon): 7.41 µM

COc1ccc(-c2oc3c(OC)c(OC)c(OC)c(O)c3c(=O)c2OC)cc1OC
TGI (OVCAR-3 ovarian): > 93.6 µM
TGI (SR leukemia): 45.1 µM
TGI (ACHN renal): > 100 µM
TGI (M14 melanoma): > 100 µM
TGI (OVCAR-8 ovarian): > 100 µM
TGI (A498 renal): > 64.8 µM
TGI (NCI-H522 lung): 44.6 µM
TGI (MOLT-4 leukemia): 51.9 µM
TGI (SN12C renal): > 100 µM
TGI (KM12 colon): > 100 µM

COc1cc(/C=C\c2ccccc2)cc(OC)c1OC
TGI (OVCAR-3 ovarian): 5.58 µM
TGI (SR leukemia): 26.7 µM
TGI (ACHN renal): > 78.5 µM
TGI (M14 melanoma): 22.1 µM
TGI (OVCAR-8 ovarian): 46.7 µM
TGI (A498 renal): > 41.1 µM
TGI (NCI-H522 lung): 7.26 µM
TGI (MOLT-4 leukemia): 17.2 µM
TGI (SN12C renal): 48.6 µM
TGI (KM12 colon): > 73.1 µM

FC(F)(F)c1cc(-c2nnc3n2N=C(N2CCCC2)CS3)cc(C(F)(F)F)c1
GI50 (OVCAR-3 ovarian): 5.27 µM
TGI (OVCAR-3 ovarian): 28.8 µM
GI50 (SR leukemia): 48.8 µM
TGI (SR leukemia): > 50 µM
GI50 (ACHN renal): 10 µM
TGI (ACHN renal): > 50 µM
GI50 (M14 melanoma): > 50 µM
TGI (M14 melanoma): > 50 µM
GI50 (OVCAR-8 ovarian): 32.9 µM
TGI (OVCAR-8 ovarian): > 50 µM
GI50 (A498 renal): > 50 µM
TGI (A498 renal): > 50 µM
GI50 (NCI-H522 lung): 24 µM
TGI (NCI-H522 lung): > 50 µM
GI50 (SN12C renal): > 50 µM
TGI (SN12C renal): > 50 µM
GI50 (KM12 colon): > 50 µM
TGI (KM12 colon): > 50 µM

CSC(CC(=O)O)C(=O)O (stereo not drawn)
TGI (OVCAR-3 ovarian): > 100 µM
TGI (SR leukemia): > 100 µM
TGI (ACHN renal): > 100 µM
TGI (M14 melanoma): > 100 µM
TGI (OVCAR-8 ovarian): > 100 µM
TGI (A498 renal): > 100 µM
TGI (NCI-H522 lung): > 100 µM
TGI (MOLT-4 leukemia): > 100 µM
TGI (SN12C renal): > 100 µM
TGI (KM12 colon): > 100 µM

COC1=CC(=O)C2C(C1=O)[C@@H]1c3ccccc3C[C@H]21 (stereo partly drawn)
TGI (OVCAR-3 ovarian): > 100 µM
TGI (SR leukemia): > 100 µM
TGI (ACHN renal): > 100 µM
TGI (M14 melanoma): > 100 µM
TGI (OVCAR-8 ovarian): > 100 µM
TGI (A498 renal): > 100 µM
TGI (NCI-H522 lung): > 100 µM
TGI (MOLT-4 leukemia): > 100 µM
TGI (KM12 colon): > 100 µM

CC1CC2CC(=O)CC3(C1)C2CCCN3CCCO (stereo not drawn)
TGI (OVCAR-3 ovarian): > 100 µM
TGI (SR leukemia): > 100 µM
TGI (ACHN renal): > 100 µM
TGI (M14 melanoma): > 100 µM
TGI (OVCAR-8 ovarian): > 100 µM
TGI (A498 renal): > 100 µM
TGI (NCI-H522 lung): > 100 µM
TGI (MOLT-4 leukemia): > 100 µM
TGI (SN12C renal): > 100 µM
TGI (KM12 colon): > 100 µM

C=CCN(/C=C1/C(=O)O[C@H](COC)[C@@]2(C)C1=C(O)C(=O)C1=C2[C@H](OC(C)=O)C[C@]2(C)C(=O)CC[C@@H]12)CC=C
GI50 (OVCAR-3 ovarian): 0.562 µM
TGI (OVCAR-3 ovarian): > 10 µM
GI50 (SR leukemia): 0.708 µM
TGI (SR leukemia): > 10 µM
GI50 (ACHN renal): 1.53 µM
TGI (ACHN renal): > 10 µM
GI50 (M14 melanoma): 2.95 µM
TGI (M14 melanoma): > 10 µM
GI50 (OVCAR-8 ovarian): 2.87 µM
TGI (OVCAR-8 ovarian): > 10 µM
GI50 (A498 renal): 0.0205 µM
TGI (A498 renal): 0.103 µM
GI50 (NCI-H522 lung): 1.41 µM
TGI (NCI-H522 lung): > 10 µM
GI50 (MOLT-4 leukemia): 1.05 µM
TGI (MOLT-4 leukemia): > 10 µM
GI50 (SN12C renal): 1.11 µM
TGI (SN12C renal): > 10 µM
GI50 (KM12 colon): 2.52 µM
TGI (KM12 colon): > 10 µM
